The values below come from ChEMBL document CHEMBL3853265 (Medchemcomm, 2016).

Values after ≈ are worked out from the molar mass of the structure shown.

Series [1] in a line: Octanol-water partition co-efficient, log D of the compound by shake flask method. Type of series: physicochemical.
Series [2] in a line: Dissociation constant, pKa of the compound. Type of series: physicochemical.
Series [3] in a line: Solubility of the compound at pH 6.5. Type of series: physicochemical. The conditions noted are these: buffer.
The nature of series [4]: Permeability in RRCK cells. Type of series: ADME, cell-based, Canis lupus familiaris, MDCKII-LE. The conditions noted are these: dog, MDCK; read-out: permeability.
Series [5] can be described thus: Intrinsic clearance in rat liver microsomes. Format: ADME. The conditions noted are these: read-out: CLH.
A short description of series [6]: Intrinsic clearance in dog liver microsomes. Format: ADME, Canis lupus familiaris. The conditions noted are these: read-out: CLH. (In general: Microsomes from liver hold many membrane-bound enzymes, among them those of drug oxidation.)
A short description of series [7]: Intrinsic clearance in rat hepatocytes assessed per 10^6 cells. Type of series: ADME, cell-based, Hepatocyte.
Series [8] in a line: Intrinsic clearance in dog hepatocytes assessed per 10^6 cells. Format: ADME, cell-based, Canis lupus familiaris, Hepatocyte.
Series [9] in a line: Fraction unbound in human plasma. Format: ADME, cell-free.
The nature of series [10]: Fraction unbound in rat plasma. Type of series: ADME, cell-free.
The target of series [11] is T1, Solute carrier organic anion transporter family member 1B1 (Homo sapiens, UniProt Q9Y6L6).
T1 sequence (Q9Y6L6 whole entry): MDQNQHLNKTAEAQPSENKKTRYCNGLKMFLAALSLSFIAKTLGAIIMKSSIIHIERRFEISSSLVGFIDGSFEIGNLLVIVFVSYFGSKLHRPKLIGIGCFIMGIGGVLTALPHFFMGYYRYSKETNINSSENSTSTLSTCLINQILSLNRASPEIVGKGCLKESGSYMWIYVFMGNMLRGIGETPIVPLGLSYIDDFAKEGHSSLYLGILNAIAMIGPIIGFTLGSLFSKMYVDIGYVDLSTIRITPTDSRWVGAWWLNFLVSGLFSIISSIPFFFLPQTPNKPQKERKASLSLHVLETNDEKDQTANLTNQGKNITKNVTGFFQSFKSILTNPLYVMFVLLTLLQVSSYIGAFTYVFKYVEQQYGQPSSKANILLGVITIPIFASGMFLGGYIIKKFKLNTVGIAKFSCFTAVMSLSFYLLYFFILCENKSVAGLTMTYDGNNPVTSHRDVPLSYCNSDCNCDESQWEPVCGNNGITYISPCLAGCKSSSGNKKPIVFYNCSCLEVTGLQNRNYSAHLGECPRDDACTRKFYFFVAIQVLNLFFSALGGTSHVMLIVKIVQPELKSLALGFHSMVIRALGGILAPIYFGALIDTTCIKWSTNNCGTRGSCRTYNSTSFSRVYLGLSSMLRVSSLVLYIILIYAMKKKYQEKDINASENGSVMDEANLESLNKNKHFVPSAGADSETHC
The series is described as follows: Drug uptake assessed as human OATP1B1-mediated drug accumulation by cell-based assay relative to wild type protein. Format: ADME.

Series [12] has as its target T2, Solute carrier organic anion transporter family member 1B3 (Homo sapiens, UniProt Q9NPD5).
T2 sequence (Q9NPD5 whole entry): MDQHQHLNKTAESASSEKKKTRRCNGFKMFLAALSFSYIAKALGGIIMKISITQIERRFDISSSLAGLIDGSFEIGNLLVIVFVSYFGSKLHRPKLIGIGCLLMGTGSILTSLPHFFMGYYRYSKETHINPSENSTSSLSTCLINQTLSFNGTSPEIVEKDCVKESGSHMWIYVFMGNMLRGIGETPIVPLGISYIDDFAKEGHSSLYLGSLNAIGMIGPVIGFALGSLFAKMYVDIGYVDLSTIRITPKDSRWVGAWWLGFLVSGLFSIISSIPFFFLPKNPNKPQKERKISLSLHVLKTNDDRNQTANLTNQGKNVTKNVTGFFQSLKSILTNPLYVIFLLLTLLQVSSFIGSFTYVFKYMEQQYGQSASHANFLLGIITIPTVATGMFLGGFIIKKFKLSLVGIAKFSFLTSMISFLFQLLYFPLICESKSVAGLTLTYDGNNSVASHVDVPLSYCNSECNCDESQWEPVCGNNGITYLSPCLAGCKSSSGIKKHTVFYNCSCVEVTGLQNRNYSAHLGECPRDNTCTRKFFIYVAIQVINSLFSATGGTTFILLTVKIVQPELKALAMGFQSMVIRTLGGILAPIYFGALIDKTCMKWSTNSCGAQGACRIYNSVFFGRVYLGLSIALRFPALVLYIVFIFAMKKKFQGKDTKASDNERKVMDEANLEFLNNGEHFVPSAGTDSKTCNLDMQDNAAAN
Put plainly: Drug uptake assessed as human OATP1B3-mediated drug accumulation by cell-based assay relative to wild type protein. Format: ADME.

Series [13] addresses T3, Solute carrier family 22 member 6 (Homo sapiens, UniProt Q4U2R8).
T3 sequence (Q4U2R8 whole entry): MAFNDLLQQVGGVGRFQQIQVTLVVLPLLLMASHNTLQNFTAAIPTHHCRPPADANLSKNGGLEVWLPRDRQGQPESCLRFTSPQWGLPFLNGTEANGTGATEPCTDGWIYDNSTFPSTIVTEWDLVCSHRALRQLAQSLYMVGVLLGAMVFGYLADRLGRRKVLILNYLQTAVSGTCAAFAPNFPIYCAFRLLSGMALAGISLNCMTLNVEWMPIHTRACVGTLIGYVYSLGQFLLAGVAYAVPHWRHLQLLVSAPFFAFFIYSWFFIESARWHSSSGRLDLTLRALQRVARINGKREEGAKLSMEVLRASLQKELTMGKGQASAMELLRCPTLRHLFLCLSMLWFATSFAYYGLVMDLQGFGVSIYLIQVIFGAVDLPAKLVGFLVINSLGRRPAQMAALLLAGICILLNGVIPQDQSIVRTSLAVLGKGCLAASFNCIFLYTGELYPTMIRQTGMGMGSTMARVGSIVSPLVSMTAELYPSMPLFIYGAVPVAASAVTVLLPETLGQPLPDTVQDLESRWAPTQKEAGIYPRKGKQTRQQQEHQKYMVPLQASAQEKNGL
The series is described as follows: Inhibition of OAT1 (unknown origin).

The target in series [14] is T4, Organic anion transporter 3 (Homo sapiens, UniProt Q8TCC7).
T4 sequence (Q8TCC7 whole entry): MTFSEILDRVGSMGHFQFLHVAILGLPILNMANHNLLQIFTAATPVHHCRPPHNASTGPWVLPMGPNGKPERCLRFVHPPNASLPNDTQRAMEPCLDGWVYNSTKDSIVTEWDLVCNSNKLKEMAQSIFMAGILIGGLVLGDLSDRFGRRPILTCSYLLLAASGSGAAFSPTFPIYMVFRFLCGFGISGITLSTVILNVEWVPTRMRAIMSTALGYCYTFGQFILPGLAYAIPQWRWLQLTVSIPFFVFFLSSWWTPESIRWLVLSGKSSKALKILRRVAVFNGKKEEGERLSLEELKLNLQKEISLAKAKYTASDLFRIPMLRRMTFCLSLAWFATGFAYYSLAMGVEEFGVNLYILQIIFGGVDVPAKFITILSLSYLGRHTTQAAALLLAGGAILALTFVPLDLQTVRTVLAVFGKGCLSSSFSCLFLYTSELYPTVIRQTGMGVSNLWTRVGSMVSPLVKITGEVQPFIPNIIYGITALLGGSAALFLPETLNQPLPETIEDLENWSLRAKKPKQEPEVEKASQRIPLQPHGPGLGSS
Put plainly: Inhibition of OAT3 (unknown origin).

Series [15] can be described thus: Mutagenicity in […] by Ames test in absence of […]. Type of series: toxicity. (The Ames test detects mutagens through reverse mutation in bacteria.)
For series [16], the target named is Voltage-gated inwardly rectifying potassium channel KCNH2 (Homo sapiens, UniProt Q12809). Put plainly: Inhibition of human ERG by patch clamp method. In general terms: The patch-clamp technique gives a direct electrical read-out from membranes.
Series [17] in a line: Plasma clearance in rat at 1 mg/kg, iv and 3 mg/kg, po. Format: ADME, organism-based.

Chain of Voltage-gated inwardly rectifying potassium channel KCNH2 (Q12809 whole entry): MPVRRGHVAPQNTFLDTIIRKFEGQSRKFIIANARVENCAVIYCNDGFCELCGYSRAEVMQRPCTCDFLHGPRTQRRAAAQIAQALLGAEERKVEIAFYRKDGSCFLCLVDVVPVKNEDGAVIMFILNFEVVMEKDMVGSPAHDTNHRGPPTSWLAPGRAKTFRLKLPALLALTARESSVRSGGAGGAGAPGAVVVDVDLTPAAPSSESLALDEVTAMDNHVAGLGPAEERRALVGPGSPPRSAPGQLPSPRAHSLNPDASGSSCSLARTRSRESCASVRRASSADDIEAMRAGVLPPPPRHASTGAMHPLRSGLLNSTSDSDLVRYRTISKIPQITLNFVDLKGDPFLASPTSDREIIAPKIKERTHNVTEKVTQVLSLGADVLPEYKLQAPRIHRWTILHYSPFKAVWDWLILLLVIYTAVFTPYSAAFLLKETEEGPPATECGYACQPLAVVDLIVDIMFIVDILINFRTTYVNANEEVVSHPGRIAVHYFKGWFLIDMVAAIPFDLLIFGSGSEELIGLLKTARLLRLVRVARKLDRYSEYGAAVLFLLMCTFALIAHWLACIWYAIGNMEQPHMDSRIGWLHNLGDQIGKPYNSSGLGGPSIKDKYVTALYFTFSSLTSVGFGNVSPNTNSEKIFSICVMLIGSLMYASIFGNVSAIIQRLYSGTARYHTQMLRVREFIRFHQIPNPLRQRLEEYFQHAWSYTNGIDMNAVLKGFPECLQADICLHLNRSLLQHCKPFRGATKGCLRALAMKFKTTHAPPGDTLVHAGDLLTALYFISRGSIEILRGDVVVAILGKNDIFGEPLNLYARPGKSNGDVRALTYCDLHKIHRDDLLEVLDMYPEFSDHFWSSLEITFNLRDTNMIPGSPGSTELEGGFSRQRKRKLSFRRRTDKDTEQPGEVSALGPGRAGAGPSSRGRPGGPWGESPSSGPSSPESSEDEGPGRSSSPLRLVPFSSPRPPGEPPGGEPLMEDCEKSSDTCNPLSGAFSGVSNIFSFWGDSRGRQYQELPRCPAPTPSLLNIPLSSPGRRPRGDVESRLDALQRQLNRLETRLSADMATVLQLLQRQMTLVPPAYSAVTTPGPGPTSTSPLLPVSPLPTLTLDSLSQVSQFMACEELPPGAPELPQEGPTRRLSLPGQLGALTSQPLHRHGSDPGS

As for `O=S(=O)(Nc1ccc(C(F)(F)F)nc1)c1ccccc1C(F)(F)F`, the logD (usually the decadic logarithm of the distribution of all forms, ionised or not, between an organic phase and buffer at a given pH) in [1] worked out at 1.4. Also, the pKa (as a rule, the pH at which an ionisable group is half protonated) in series [2] was determined as 5.1. For the same compound, in [3], the concentration in solution (solubility) came to 620 µM (≈ 230 µg/mL). For the same compound, the Papp in series [4] was found to be 27 ×10⁻⁶ cm/s. Also, the microsomal CLint in series [5] was under 14 µL/min/mg; in series [6], under 18 µL/min/mg. Moreover, the CLH in series [7] and in series [8] was under 6 µL/min/1e6 cells each time. In addition, the figures for the fraction unbound in series [9] and in [10] were 0.0084 and 0.0045, respectively. Also, the figures for the “fold change (FC)” value in [11] and in [12] were 0.902 and 0.582, respectively. Besides, the IC50 (usually the concentration needed to halve the response being measured) was 12.3 µM in series [13], 3.3 µM in series [14] and over 100 µM in series [16]. Also, the Activity result in series [15] is recorded as “Non-Toxic”. The compound also returned a clearance in series [17] of 0.18 mL/min/kg.

In series [1], `O=S(=O)(Nc1cncc(C(F)(F)F)c1)c1ccccc1C(F)(F)F` displayed a logD of 1.5. Further, the pKa in series [2] turned out to be 5.2. The concentration in solution in series [3] (solubility) was 489 µM (≈ 181 µg/mL). Moreover, in [4], the Papp is 21 ×10⁻⁶ cm/s. In addition, the microsomal CLint in [5] was 35 µL/min/mg; in series [6], under 18 µL/min/mg. Further, the CLH is 7 µL/min/1e6 cells in [7] and under 6 µL/min/1e6 cells in [8]. The fraction unbound (usually free concentration divided by total concentration) in [9] was determined as 0.0034; in series [10] it was 0.0017. Besides, the “fold change (FC)” value is listed as 0.573 in series [11] and 0.702 in series [12]. In addition, the figures for the IC50 in series [13], in series [14] and in [16] were 9.3 µM, 3.4 µM and over 100 µM, respectively. The Activity entry in series [15] was “Non-Toxic”. The clearance in series [17] is 0.55 mL/min/kg.
